The values that follow come from patent publication US20220062345A1, “PHARMACEUTICAL COMPOSITION CONTAINING PROTEIN KINASE C ACTIVATOR-TREATED STEM CELLS OR CULTURE THEREOF FOR PREVENTING OR TREATING AUTOIMMUNE DISEASES” (CORESTEM CO.,LTD., priority 2018, published 2022).

One experiment deals with B cells. The experiment is described as follows: Co-culture of B cells isolated from PBMC with hMSC and ODN, IgM in supernatant by ELISA. The experiment is classed as cell-based. The conditions noted are these: screening of 20 types of chemicals treated to human MSC. The procedure:
Human mesenchymal stern cells (MSC) were obtained from hone marrow (BM) cells of human tibiae and femurs. BM cells were cultured in α-MEM medium including 10% fetal bovine serum (FBS), 2 mM L-glutamine, and penicillin/streptomycin under a condition of 37° C. and 5% CO2. Non-adherent cells were removed on day 1, and adhered cells were cultured with medium replenishment every 3 days and used between day 17 and day 20.
As substances used for the pretreatment condition for hMSC, PMA (10 ng/mL, 24-hour treatment, Sigma), I3A (10 μg/mL, 24-hour treatment, Sigma), and IFN-γ (10 ng/mL, 7-day treatment, Sigma) were used.
IFN-γ measurement'as performed according to the test method provided by R&D (#DY285-05), and for IgM, the IgM ELISA kit (eBioscience, Vienna, Austria) was used for measurement. […] Finally, the value was measured at 450 nm to 570 nm.
After B cells (1×10^5 cells/well) isolated from peripheral blood mononuclear cells (PBMC) and PMA-treated hMSC (1×10^3 cells/well) were co-cultured for 72 hours with CpG oligodeoxynucleotides (ODN, 5 μg/mL), the level of IgM in the supernatant was measured by ELISA (A in FIG. 1). T cells (1×10^5 cells/well) isolated from PBMC and PMA-treated hMSCs×10^3 cells/well) were co-cultured for 72 hours with phytohemagglutinin (PHA, 5 ug/mL), and the level of IFN-γ in the supernatant was measured by ELISA (B in FIG. 1). […]

Experiment [1] has as its system MSC. The experiment is described as follows: Chemokines of MSC by RT-PCR and ELISA. The experiment is classed as cell-based, human. The conditions noted are these: MSC treated with PMA; mRNA (RT-PCR) and protein (ELISA). Here is the method:
Cells were treated with Trypsin-EDTA (Gibco) at […] at a time point when the confluency of 70% to 80% was reached, followed by culturing under a condition of 5% CO2 and 37° C. After 24 hours of material treatment, the cells were recovered, and the total RNA was isolated from the cells using the TRIZOL reagent (invitrogen, MD, USA), and the total RNA was quantified by absorbance measurement at 260 nm.
A total RNA concentration of 0.3 μg was used, and it was synthesized at 42° C. for 1 hour and at 95° C. for 5 minutes. Polymerase chain reaction was performed using 3 μL of synthesized cDNA and 10 pM of a primer. […]
(§1) The expression levels of mRNA for FasL, PD-L1, PD-L2, ICAM1, VCAM1, β-actin, IFN-γ, TNF-α, IL-12, COX-2, iNOS, IDO, TGF-β, CCL2, CCL3, CXCL10, and CXCL12 were analyzed by quantitative real-time PCR (qPCR). The relative mRNA amount of each sample was calculated based on a threshold cycle (Ct) compared to the threshold cycle (Ct) of β-actin, which is a housekeeping gene.
The chemokines of MSC were analyzed by RT-PCR (A in FIG. 2) and ELISA (B in FIG. 2) at mRNA and protein levels, respectively. […] The migration of B cells with respect to MSC was measured using a transwell, MSCs were seeded in the lower well, and B cells were seeded in the upper well. […]

For a further experiment, the system named is PKC-α and δ. Put plainly: PKC signaling in MSC by western blot. Format: cell-based, human. The conditions noted are these: PMA treated to MSC, 24 hours. Here is the method:
Cells were lysed in ice using a cell lysis buffer (Cell Signaling Technology, Danvers, Mass., USA). Proteins were obtained by centrifugation at 12,000 rpm for 15 minutes at 4° C. The proteins were quantified using the Bradford reagent, and electrophoresis was performed at 75V with 20 μg of the proteins by using an SDS-polyacrylamide gel. After the SDS-polyacrylamide gel was transferred to a PVDF membrane at 95V for 90 minutes, 5% nonfat dry milk was added to TBS (TTBS) including 0.5% Tween 20 and blocked for 1 hour. After blocking, the membrane was placed in 5% BSA/TTBS including a primary antibody and shaken at 4° C. for one day. […] After washing the membrane with TTBS and reacting the membrane with enhanced chemiluminescence (ECL, Amersham Pharmacia Biotech, Piscataway, N.J., USA), the degree of protein expression was measured using a ChemiDoc™ XRS+ machine (Bio-Rad, CA, USA).
PMA was treated to MSC, and after 24 hours, proteins were obtained, and signaling was analyzed through western blot (A in FIG. 4). A PKC inhibitor (Go6983, 1 ug/mL) was pre-treated to MSC for 1 hour, and after PMA was treated, proteins were obtained after 24 hours, and signaling was analyzed through western blot (B in FIG. 4). […] Then, the level of IgM in the supernatant was measured by ELISA (C in FIG. 4). The mRNA levels of the surface molecules of the PMA-treated MSCs were analyzed via RT-PCR (D in FIG. 4). […]

For experiment [2], the system named is MSC. The experiment is described as follows: Surface molecules of PMA-treated MSC by RT-PCR and FACS. The experiment is classed as cell-based, human. The conditions noted are these: PMA treated to MSC, RT-PCR. The procedure:
as §1
PMA was treated to MSC, and after 24 hours, proteins were obtained, and signaling was analyzed through western blot (A in FIG. 4). A PKC inhibitor (Go6983, 1 ug/mL) was pre-treated to MSC for 1 hour, and after PMA was treated, proteins were obtained after 24 hours, and signaling was analyzed through western blot (B in FIG. 4). After MSC was pretreated with the PKC inhibitor (Go6983, 1 ug/mL) for 1 hour and PMA was treated, B cells (1×10^5 cells/well) that were isolated from PBMC and PMA-treated MSCs (1×10^3 cells/well) were co-cultured with ODN for 72 hours. Then, the level of IgM in the supernatant was measured by ELISA (C in FIG. 4). The mRNA levels of the surface molecules of the PMA-treated MSCs were analyzed via RT-PCR (D in FIG. 4). The expressions of PD-L1 of the PMA-treated MSC and PD1 of the B cells were analyzed through FACS (E in FIG. 4). After treating the FasL blocking Ab (10 ug/mL) (F) and the PD-L1 blocking Ab (10 ug/mL) (G) to MSCs and adding PMA, MSCs and B cells were cultured with ODN for 72 hours, and then, the IgM level in the supernatant was measured by ELISA. The PMA-treated MSCs were treated with siRNA to confirm […] at the mRNA level via RT-PCR. After the PMA-treated MSCs, in which PD-L1 was knocked down, and B cells were cultured with ODN for 72 hours, the IgM level in the supernatant was measured by ELISA (H in FIG. 4). PMA was treated to the MSCs, and after 24 hours, the total RNA was obtained, and soluble factors were analyzed via RT-PCR (I in FIG. 4).

For `CCCCCCCCCCCCCC(=O)O[C@@H]1[C@@H](C)[C@@]2(O)[C@@H](C=C(CO)C[C@]3(O)C(=O)C(C)=C[C@@H]23)[C@@H]2C(C)(C)[C@]12OC(C)=O` [PMA, phorbol myristate acetate], in the experiment with B cells, the “human B cell function” value is “inhibits”. In addition, the “expression of CXCL10 in MSC” value in the experiment on MSC [1] is recorded as “increased”. Further, in the experiment with PKC-α and δ, the “PKC-α and δ in the cytoplasm of MSC” value was “transferred to the cell membrane”; the “phosphorylation of ERK in MSC” value is listed as “increased”. In addition, in the experiment with MSC [2], the “FasL expression in MSC” value is “expressed” and the “PD-L2 expression in MSC” value is on record as “expressed”. In addition, the “PD-L1 expression in MSC” value with MSC [2] (FACS) was “expressed”.
